SMILES strings stand for the structures.

One test relates to Jurkat T cells. The test is described as follows: Pro-apoptotic activity on Jurkat T cells (FITC-Annexin V / 7-AAD flow cytometry). In kind it is cell-based. To be noted: Homo sapiens, 72 hours, cells stained with FITC-Annexin V and 7-AAD among total cells, read-out: Cell Apoptosis Effect to Jurkat T Cell (% in 5 μM). How it is done:
In order to investigate the effects of the prepared compounds, the apoptosis-inducing effects of the compounds on human T cell acute lymphoblastic leukemia cell line, Jurkat T cells, were evaluated in the following manner.
Jurkat T cells cultured in RPMI medium containing 10% fetal bovine serum (FBS) were collected and stained with trypan blue (Sigma). […] Then, the cells were centrifuged at 1200 rpm at room temperature for 5 minutes and re-suspended in 10% FBS-containing RPMI medium at a concentration of 1.5×10^5 cells/mL. 200 μL of the cell suspension was dispensed into each well of a flat bottom 96-well plate (Costar). Then, the cells were treated with 10 μL of the diluted compounds in RPMI medium at final concentrations of […] or 5 μM, and incubated in a 5% CO2 incubator at 37° C. for 72 hours. In a vehicle control group, the cells were treated with 10 μL of RPMI medium containing 1% of dimetylsulfoxide (DMSO, Sigma). The incubated cells were harvested, put into 5-mL FACS tubes (BD Falcon), washed with 1 mL of phosphate buffered saline (PBS), and then re-suspended in 0.1 mL of binding buffer (10 mM Hepes-NaOH, pH 7.4, 140 mM NaCl, […] CaCl2). The suspended cells were stained with fluorescein isothiocyanate (FITC)-Annexin V (BD Biosciences) and 7-amino-actinomycin D (7-AAD, e-Biosciences) at room temperature for 15 minutes. The stained cells were suspended in 0.3 mL of binding buffer and analyzed by a flow cytometer. Apoptosis was determined by the ratio (%) of cells stained with FITC-Annexin V and 7-AAD among the total cells (see Tables 10 and 11).
A general note: A flow cytometer gives signals particle by particle.
Take `Cc1cc(N)cc(C)c1OCC(=O)N/N=C/c1cccc2[nH]ccc12` [Compound 232, (E)-N′-((1H-indol-4-yl)methylene)-2-(4-amino-2,6-dimethylphenoxy)acetohydrazide]: the cytotoxicity at 5 µM worked out at 100%. Regarding `Cc1cc(Cl)cc(C)c1OCC(=O)N/N=C/c1c[nH]c2ccccc12` [Compound 156, (E)-N′-((1H-indol-3-yl)methylene)-2-(4-chloro-2,6-dimethylphenoxy)acetohydrazide], the cytotoxicity at 5 µM turned out to be 90%. Regarding `Cc1cc(C)c(OCC(=O)N(CCO)/N=C/c2cccc3[nH]ccc23)c(C)c1` [Compound 177, (E)-N′-((1H-indol-4-yl)methylene)-N-(2-hydroxyethyl)-2-(mesityloxy)acetohydrazide], the cytotoxicity at 5 µM worked out at 100%. With `Cc1cc(C)c(OCC(=O)N/N=C/c2ccc3c(Br)c[nH]c3c2)c(C)c1` [Compound 256], the cytotoxicity at 5 µM came out at 100%. `Cc1cc(-c2cccnc2)cc(C)c1OCC(=O)N/N=C/c1ccc2cc[nH]c2c1` [Compound 139, (E)-N′-((1H-indol-6-yl)methylene)-2-(2,6-dimethyl-4-(pyridin-3-yl)phenoxy)acetohydrazide]: the cytotoxicity at 5 µM came to 100%.

With `Cc1cc(C)c(OCC(=O)N/N=C/c2ccc3cc[nH]c3c2)c(-c2cccnc2)c1` [Compound 183, (E)-N′-((1H-indol-6-yl)methylene)-2-(2,4-dimethyl-6-(pyridin-3-yl)phenoxy)acetohydrazide], the cytotoxicity at 5 µM came to 100%. Still for that read-out and setting: then `Cc1cc(C)c(OCC(=O)N/N=C/c2ccc3cc[nH]c3c2)c(-c2ccncc2)c1` [Compound 217, (E)-N′-((1H-indol-6-yl)methylene)-2-(2,4-dimethyl-6-(pyridin-4-yl)phenoxy)acetohydrazide], with 100%.

Regarding `Cc1cc(Br)cc(C)c1OCC(=O)N/N=C/c1ccc2cc[nH]c2c1` [Compound 133, (E)-N′-((1H-indol-6-yl)methylene)-2-(4-bromo-2,6-dimethylphenoxy)acetohydrazide], the cytotoxicity at 5 µM came out at 100%. Consider `Cc1cccc(C)c1OCC(=O)N/N=C/c1cccc2[nH]ccc12` [Compound 118, (E)-N′-((1H-indol-4-yl)methylene)-2-(2,6-dimethylphenoxy)acetohydrazide], for which the cytotoxicity at 5 µM worked out at 100%.

The test is the same for the next values; noted with them: Homo sapiens, 72 hours, cells stained with FITC-Annexin V and 7-AAD among total cells, read-out: Jurkat T Cell Apoptosis (% in 5 μM).
For `Cc1cc(C)c(OCC(=O)N/N=C/c2cccc3[nH]ccc23)c(-c2ccoc2)c1` [Compound 333, (E)-N′-((1H-indol-4-yl)methylene)-2-(2-(furan-3-yl)-4,6-dimethylphenoxy)acetohydrazide], the cytotoxicity at 5 µM was 100%.

For the molecule `COc1ccc(OCC(=O)N/N=C/c2cccc3[nH]ccc23)c(C(C)(C)C)c1` [Compound 302, (E)-N′-((1H-indol-4-yl)methylene)-2-(2-tert-butyl-4-methoxyphenoxy)acetohydrazide], the cytotoxicity at 5 µM came to 100%. Still for that read-out and setting: then `COc1ccc(OCC(=O)N/N=C/c2cccc3[nH]ccc23)c(-c2ccco2)c1` [Compound 346, (E)-N′-((1H-indol-4-yl)methylene)-2-(2-(furan-2-yl)-4-methoxyphenoxy)acetohydrazide], with 100%; and `Cc1cc(C)c(OCC(=O)N/N=C/c2cccc3[nH]ccc23)c(-c2ccco2)c1` [Compound 317, (E)-N′-((1H-indol-4-yl)methylene)-2-(2-(furan-2-yl)-4,6-dimethylphenoxy)acetohydrazide], with 100%; and `Cc1cccc(OCC(=O)N/N=C/c2ccc3cc[nH]c3c2)c1C` [Compound 327], with 95%. Take `Cc1cc(C)c(OCC(=O)N/N=C/c2ccc3cc[nH]c3c2)c(-c2cccs2)c1` [Compound 345]: the cytotoxicity at 5 µM came to 95%. For `Cc1cccc(C2CCOC2)c1OCC(=O)N/N=C/c1cccc2[nH]ccc12` (centres unmarked) [Compound 312, (E)-N′-((1H-indol-4-yl)methylene)-2-(2-methyl-6-(tetrahydrofuran-3-yl)phenoxy)acetohydrazide], the cytotoxicity at 5 µM turned out to be 100%.

For `COc1ccc(OCC(=O)N/N=C/c2ccc3cc[nH]c3c2)c(C(C)(C)C)c1` [Compound 303], the cytotoxicity at 5 µM was found to be 100%.
